In general, T/C refers to the result in the treated group divided by that in the control group, in per cent.

Several values for one entry are separate records, joined by “and”; a condition that tells them apart may be missing. Equal entries are not always repeated.

The test system of the assay is BDF1 mice, Adenocarcinoma 755 s.c., tumor weight T/C. Kind of assay: NCI In Vivo Anticancer Drug Screen. Data for tumor model Adenocarcinoma 755 (subcutaneous) in B6D2F1 (BDF1) mice. To be noted: endpoint: mean tumor weight, schedule: Q01DX011 (ip), higher = larger tumour. The procedure, abridged:
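Readout: T/C, i.e. treated-group measurement over vehicle-control measurement. Endpoint is survival or tumor size in tumor-bearing mice given compound.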

Setting [1] is: dose: 225.0 mg/kg/injection, vehicle: carboxymethylcellulose (CMC).
The mark [2] stands for this setting: dose: 450.0 mg/kg/injection, vehicle: carboxymethylcellulose (CMC).
Setting [3] is: dose: 12.0 mg/kg/injection, vehicle: carboxymethylcellulose (CMC).
Setting [4] is: dose: 25.0 mg/kg/injection, vehicle: carboxymethylcellulose (CMC).
Where [5] appears, read: dose: 50.0 mg/kg/injection, vehicle: carboxymethylcellulose (CMC).
Setting [6] is: dose: 125.0 mg/kg/injection, vehicle: carboxymethylcellulose (CMC).
[7] abbreviates: dose: 30.0 mg/kg/injection, vehicle: carboxymethylcellulose (CMC).
Setting [8] is: dose: 60.0 mg/kg/injection, vehicle: carboxymethylcellulose (CMC).
Where [9] appears, read: dose: 120.0 mg/kg/injection, vehicle: carboxymethylcellulose (CMC).
Where [10] appears, read: dose: 240.0 mg/kg/injection, vehicle: carboxymethylcellulose (CMC).
Setting [11] is: dose: 25.0 mg/kg/injection, vehicle: methylcellulose (MC).
Where [12] appears, read: dose: 50.0 mg/kg/injection, vehicle: methylcellulose (MC).
The mark [13] stands for this setting: dose: 100.0 mg/kg/injection, vehicle: methylcellulose (MC).
The mark [14] stands for this setting: dose: 200.0 mg/kg/injection, vehicle: methylcellulose (MC).
Setting [15] is: dose: 225.0 mg/kg/injection, vehicle: methylcellulose (MC).

Consider `NS(=O)(=O)c1ncc2[nH]cnc2n1`, for which the T/C reads like this: under setting [1], 111 % of control; under setting [2], 82 % of control.

As to `O=S(=O)(NCc1ccccn1)c1ncnc2nc[nH]c12`, the T/C by setting is: under setting [3], 119 % of control; under setting [4], 101 % of control; under setting [5], 99 % of control.

For `CC(=O)Nc1c(Cl)c(Cl)c2c(c1Cl)Cc1cc(F)ccc1-2`, the T/C runs as follows: under setting [6], 91 % of control; (dose: 125.0 mg/kg/injection, vehicle: saline) 29 % of control; (dose: 250.0 mg/kg/injection, vehicle: carboxymethylcellulose (CMC)) 41 % of control; (dose: 250.0 mg/kg/injection, vehicle: saline) 29 % of control; (dose: 500.0 mg/kg/injection, vehicle: carboxymethylcellulose (CMC)) 42 % of control; (dose: 500.0 mg/kg/injection, vehicle: saline) 17 % of control. Also, the T/C by setting is: (dose: 1000.0 mg/kg/injection, vehicle: carboxymethylcellulose (CMC)) 25 % of control; (dose: 1000.0 mg/kg/injection, vehicle: saline) 14 % of control.

For `O=NN1CCN(N=O)CC1`, the T/C is, setting by setting: (dose: 6.21 mg/kg/injection, vehicle: carboxymethylcellulose (CMC)) 76 % of control; (dose: 7.36 mg/kg/injection, vehicle: carboxymethylcellulose (CMC)) 69 % of control; (dose: 11.75 mg/kg/injection, vehicle: carboxymethylcellulose (CMC)) 98 % of control and 78 % of control; (dose: 12.43 mg/kg/injection, vehicle: carboxymethylcellulose (CMC)) 85 % of control; (dose: 14.72 mg/kg/injection, vehicle: carboxymethylcellulose (CMC)) 101 % of control; (dose: 18.8 mg/kg/injection, vehicle: carboxymethylcellulose (CMC)) 157 % of control. The T/C was 69 % of control and 83 % of control (dose: 23.5 mg/kg/injection, vehicle: carboxymethylcellulose (CMC)); 88 % of control (dose: 23.56 mg/kg/injection, vehicle: carboxymethylcellulose (CMC)); 56 % of control (dose: 24.85 mg/kg/injection, vehicle: carboxymethylcellulose (CMC)); 99 % of control and 100 % of control (dose: 29.45 mg/kg/injection, vehicle: carboxymethylcellulose (CMC)); 57 % of control (dose: 31.33 mg/kg/injection, vehicle: carboxymethylcellulose (CMC)); 67 % of control (dose: 39.26 mg/kg/injection, vehicle: carboxymethylcellulose (CMC)). Moreover, the T/C runs as follows: (dose: 40.0 mg/kg/injection, vehicle: carboxymethylcellulose (CMC)) 99 % of control; (dose: 45.0 mg/kg/injection, vehicle: carboxymethylcellulose (CMC)) 100 % of control; under setting [5], 86 % of control; (dose: 55.0 mg/kg/injection, vehicle: carboxymethylcellulose (CMC)) 102 % of control.

With `CC(=O)OCC1OC(n2cnc3c(Cl)nc(N)nc32)C(OC(C)=O)C1OC(C)=O` (stereo not drawn), the T/C was 114 % of control under setting [7], 118 % of control under setting [8], 78 % of control under setting [9] and 72 % of control under setting [10].

Turning to `C=CCC1(CC)C(=O)NC(=O)NC1=O`, the T/C was 83 % of control (dose: 10.0 mg/kg/injection, vehicle: carboxymethylcellulose (CMC)); 53 % of control (dose: 22.0 mg/kg/injection, vehicle: methylcellulose (MC)); 112 % of control under setting [11]; 59 % of control (dose: 42.0 mg/kg/injection, vehicle: methylcellulose (MC)); 94 % of control and 79 % of control under setting [12]; 23 % of control (dose: 85.0 mg/kg/injection, vehicle: methylcellulose (MC)). In addition, the T/C under setting [13] was 61 % of control and 66 % of control; the T/C (dose: 170.0 mg/kg/injection, vehicle: carboxymethylcellulose (CMC)) was 49 % of control; the T/C (dose: 170.0 mg/kg/injection, vehicle: methylcellulose (MC)) was 4 % of control; the T/C (dose: 200.0 mg/kg/injection, vehicle: carboxymethylcellulose (CMC)) was 83 % of control; the T/C under setting [14] is 27 % of control and 42 % of control.

Regarding `Cc1ccc(/C=N/Nc2nc3c(c(=O)n(C)c(=O)n3C)n2C)cc1`, the T/C is, setting by setting: under setting [11], 77 % of control; (dose: 75.0 mg/kg/injection, vehicle: methylcellulose (MC)) 60 % of control; under setting [15], 39 % of control.

`CCCn1cnc2c(SCc3ccccn3)nc(N)nc21`: the T/C is 12 % of control (dose: 3.6 mg/kg/injection, vehicle: methylcellulose (MC)); 4 % of control (dose: 7.25 mg/kg/injection, vehicle: methylcellulose (MC)); 1 % of control (dose: 15.5 mg/kg/injection, vehicle: methylcellulose (MC)).

Take `C[C@@H]1CN(C(=O)CCBr)[C@@H](C)CN1C(=O)CCBr`: the T/C (dose: 113.0 mg/kg/injection, vehicle: carboxymethylcellulose (CMC)) is 50 % of control; the T/C under setting [1] is 48 % of control; the T/C under setting [2] was 57 % of control.

On to `On1cnc(=S)c2[nH]cnc21`, for which the T/C under setting [6] was 5 % of control.

In the case of `S=c1nc[nH]c2c1ncn2C1CCCO1` (stereo not drawn), the T/C by setting is: (dose: 0.5 mg/kg/injection, vehicle: carboxymethylcellulose (CMC)) 26 % of control; (dose: 1.0 mg/kg/injection, vehicle: carboxymethylcellulose (CMC)) 75 % of control; (dose: 1.5 mg/kg/injection, vehicle: carboxymethylcellulose (CMC)) 47 % of control; (dose: 6.0 mg/kg/injection, vehicle: carboxymethylcellulose (CMC)) 11 % of control; under setting [3], 6 % of control; under setting [4], 4 % of control. The T/C under setting [5] was 6 % of control and the T/C (dose: 100.0 mg/kg/injection, vehicle: carboxymethylcellulose (CMC)) is 6 % of control.

Take `CCCCn1cnc2c(SCCc3ccccc3)nc(N)nc21`: the T/C was 37 % of control under setting [12], 42 % of control under setting [13] and 26 % of control under setting [14].

`CN(C)S(=O)(=O)c1nc2nc[nH]c(=O)c2[nH]1`: the T/C reads like this: under setting [7], 108 % of control; under setting [8], 158 % of control; under setting [9], 101 % of control; under setting [10], 91 % of control.

Consider `O=C(CCBr)Nc1ccc(NC(=O)CCBr)cc1`, for which the T/C by setting is: (dose: 56.0 mg/kg/injection, vehicle: methylcellulose (MC)) 113 % of control; (dose: 113.0 mg/kg/injection, vehicle: methylcellulose (MC)) 108 % of control; under setting [15], 100 % of control; (dose: 450.0 mg/kg/injection, vehicle: methylcellulose (MC)) 117 % of control.

The values are drawn from PubChem BioAssay AID180 (DTP/NCI, 2004).
